Assay results published in patent US20190030018A1 (Celgene Corporation, priority 2017, published 2019).

Experiments:
Assay in all cases: In vitro combination studies, CellTitre-Glo cell viability
MOLM-13 = details: MOLM-13; in combination with Compound 1
MV-4-11 = details: MV-4-11; in combination with Compound 1
OCI-AML-2 = details: OCI-AML-2; in combination with Compound 1
F-36-P = details: F-36-P; in combination with Compound 1
OCT-AML-3 = details: OCI-AML-3; in combination with Compound 1
NOMO-1 = details: NOMO-1; in combination with Compound 1
ML-2 = details: ML-2; in combination with Compound 1
KG-1 = details: KG-1; in combination with Compound 1
HNT-34 = details: HNT-34; in combination with Compound 1
HL-60 = details: HL-60; in combination with Compound 1

Structure (SMILES)	Synergy analysis for combinations with Compound 1 (MOLM-13)	Synergy analysis for combinations with Compound 1 (MV-4-11)	Synergy analysis for combinations with Compound 1 (OCI-AML-2)	Synergy analysis for combinations with Compound 1 (F-36-P)	Synergy analysis for combinations with Compound 1 (OCT-AML-3)	Synergy analysis for combinations with Compound 1 (NOMO-1)	Synergy analysis for combinations with Compound 1 (ML-2)	Synergy analysis for combinations with Compound 1 (KG-1)	Synergy analysis for combinations with Compound 1 (HNT-34)	Synergy analysis for combinations with Compound 1 (HL-60)
COc1ccc(-c2ccc3c(N4CCOC[C@@H]4C)nc(N4CCOC[C@@H]4C)nc3n2)cc1CO [AZD8055]	Yes	No	Yes	Yes	Yes	Yes	No	No	No	No
CO[C@H]1/C=C\C=C(/C)C(=O)NC2=CC(=O)C(NCCN(C)C)=C(C[C@@H](C)C[C@H](OC)[C@H](O)[C@@H](C)/C=C(\C)[C@@H]1OC(N)=O)C2=O [Alvespimycin]	No	Yes	Yes	No	No	No	No	No	No	No
CCN1C(=O)CNc2ncc(-c3ccc(-c4nc[nH]n4)nc3C)nc21 [CC-115, 1-ethyl-7-(2-methyl-6-(1H-1,2,4-triazol-3-yl)pyridin-3-yl)-3,4-dihydropyrazino[2,3-b]pyrazin-2(1H)-one, reference compound]	Yes	Yes	Yes	Yes	Yes	Yes	Yes	No	Yes	No
CO[C@H]1CC[C@H](N2C(=O)CNc3ncc(-c4ccc(C(C)(C)O)nc4)nc32)CC1 [CC-223, 7-(6-(2-hydroxypropan-2-yl)pyridin-3-yl)-1-((trans)-4-methoxycyclohexyl)-3,4-dihydropyrazino[2,3-b]pyrazin-2(1H)-one, reference compound]	Yes	Yes	Yes	Yes	Yes	Yes	Yes	No	No	No
CC(C)C[C@H](NC(=O)[C@@H](NC(=O)c1cccc(-c2ccccc2)n1)[C@@H](C)O)B(O)O [CEP-18770]	No	No	No	No	No	No	No	No	No	No
CC(C)C[C@H](NC(=O)[C@H](CCc1ccccc1)NC(=O)CN1CCOCC1)C(=O)N[C@@H](Cc1ccccc1)C(=O)N[C@@H](CC(C)C)C(=O)[C@@]1(C)CO1 [Carfilzomib]	No	No	No	No	No	No	No	No	No	No
